The assay addresses T1, PaAtg18 (Atg18) (Ogataea angusta, UniProt Q5QA94).
T1 sequence (Q5QA94 1-525): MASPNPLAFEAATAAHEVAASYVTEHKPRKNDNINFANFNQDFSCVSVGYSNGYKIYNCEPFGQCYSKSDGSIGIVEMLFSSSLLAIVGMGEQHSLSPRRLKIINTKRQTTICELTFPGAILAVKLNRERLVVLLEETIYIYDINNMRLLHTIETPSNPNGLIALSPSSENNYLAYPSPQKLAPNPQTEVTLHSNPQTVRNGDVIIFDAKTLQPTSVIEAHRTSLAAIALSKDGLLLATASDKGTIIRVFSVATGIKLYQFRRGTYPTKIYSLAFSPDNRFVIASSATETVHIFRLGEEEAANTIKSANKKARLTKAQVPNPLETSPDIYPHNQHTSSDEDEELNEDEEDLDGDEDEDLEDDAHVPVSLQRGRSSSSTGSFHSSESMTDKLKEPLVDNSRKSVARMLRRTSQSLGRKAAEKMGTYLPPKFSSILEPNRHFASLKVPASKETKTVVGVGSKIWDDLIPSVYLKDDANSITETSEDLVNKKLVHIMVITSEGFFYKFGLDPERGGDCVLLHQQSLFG
Description: isothermal titration calorimetry. The class given is binding. (Isothermal titration calorimetry measures the heat released or taken up as one component is titrated into another.)

As to `O=P(O)(O)O[C@@H]1[C@H](O)[C@H](O)[C@@H](OP(=O)(O)O)[C@H](OP(=O)(O)O)[C@H]1O` [Ins(1,4,5)P3], the dissociation constant (Kd) (usually the free concentration of one partner at which half of the binding sites on the other are occupied at equilibrium, for simple one-to-one binding) was found to be 116 ± 14 µM. `O=P(O)(O)O[C@H]1[C@H](O)[C@@H](O)[C@H](OP(=O)(O)O)[C@@H](OP(=O)(O)O)[C@H]1O` [Ins(1,3,4)P3] registered a Kd of 85.6 ± 23.5 µM. For `O=P(O)(O)O[C@H]1[C@H](O)[C@@H](OP(=O)(O)O)[C@H](O)[C@@H](OP(=O)(O)O)[C@H]1O` [Ins(1,3,5)P3] the value was 37.4 ± 1.3 µM.

(Values after doi:10.1101/2025.01.31.635529v3 (biorxiv, 2025).)
